Data from patent EP4206196A1, “PYRIMIDINE SUBSTITUTED DERIVATIVES AS TYK2 INHIBITORS” (Almirall S.A., priority 2021, dated 2023).

What was measured:
[1] = target: T1, TYK2 (JH2domain-pseudokinase) (Homo sapiens, UniProt P29597); assay: TYK2 JH2 domain binding assay (KINOMEscan)
T1 construct: TYK2 (JH2domain-pseudokinase)-tagged T7 phage strains were prepared in an E. coli host derived from the BL21 strain; made in house; host or cells: E. coli BL21-derived host (T7 phage) or HEK-293 cells
Procedure, shortened: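 Competition binding of DNA-tagged TYK2 JH2 pseudokinase domain against immobilised affinity ligand, 1 h at room temperature in SeaBlock/PBS/Tween/DTT buffer with about 1% DMSO. Bound kinase eluted and quantified by qPCR. Kd taken from 11-point 3-fold series, usually 30,000 nM top, fitted by Levenberg-Marquardt nonlinear least squares.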

[2] = tested on: STAT1/3 through TYK2/JAK1; assay: IFNa induced STAT phosphorylation in HEK293 cells (SIE-bla reporter gene); assay type: cell-based; conditions: Homo sapiens, HEK293; HEK293T-sie-bla cells, IFNa at EC80, 4 hours; read-out: Inhibition of IFNa induced STAT phosphorylation HEK293 cells IC50
Procedure, shortened: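 HEK293T cells carrying a SIE-driven β-lactamase reporter were co-treated with compound (1/5 serial dilution, 10 points, 0.1% DMSO final) and IFNa at EC80 for 4 h at 37°C. β-Lactamase substrate was added to stop the stimulation, followed by overnight dark incubation and FRET read. IC50 from a four-parameter logistic fit.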

T1 sequence (P29597 589-875 limits assumed): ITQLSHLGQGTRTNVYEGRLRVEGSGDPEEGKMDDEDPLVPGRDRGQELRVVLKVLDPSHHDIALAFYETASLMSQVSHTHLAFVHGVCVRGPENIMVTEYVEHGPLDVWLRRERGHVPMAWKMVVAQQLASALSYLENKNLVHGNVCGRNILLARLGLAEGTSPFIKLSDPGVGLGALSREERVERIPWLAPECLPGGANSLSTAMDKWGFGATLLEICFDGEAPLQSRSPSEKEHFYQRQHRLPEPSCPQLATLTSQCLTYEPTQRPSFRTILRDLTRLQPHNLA

Compound | Kd [1] | IC50 [2]
Cc1cc(Nc2cc(Nc3ccc(C4CCNC4)cc3N(C)S(C)(=O)=O)ncn2)nc(C)n1 (stereo not drawn) [Example 110, N-[2-[[6-[(2,6-dimethylpyrimidin-4-yl)amino]pyrimidin-4-yl]amino]-5-pyrrolidin-3-yl-phenyl]-N-methyl-methanesulfonamide] | 1 to 10 nM | 100 to 1000 nM
Cc1cc(Nc2cc(Nc3ccc(C4CCOC4)cc3N(C)S(C)(=O)=O)ncn2)nc(C)n1 (stereo not drawn) [Example 111, N-[2-[[6-[(2,6-dimethylpyrimidin-4-yl)amino]pyrimidin-4-yl]amino]-5-tetrahydrofuran-3-yl-phenyl]-N-methyl-methanesulfonamide] | < 0.2 nM | 10 to 100 nM
CN=S(C)(=O)c1ccccc1Nc1cc(Nc2cc(C)nc(C)n2)ncn1 (stereo not drawn) [Example 112, N6-(2,6-dimethylpyrimidin-4-yl)-N4-[2-(N,S-dimethylsulfonimidoyl)phenyl]pyrimidine-4,6-diamine] | < 0.2 nM | 10 to 100 nM
CN=S(C)(=O)c1cc(-c2cnn(C)c2C)ccc1Nc1cc(Nc2cc(C)nc(C)n2)ncn1 (stereo not drawn) [Example 113, N4-[4-(1,5-dimethylpyrazol-4-yl)-2-(N,S-dimethylsulfonimidoyl)phenyl]-N6-(2,6-dimethylpyrimidin-4-yl)pyrimidine-4,6-diamine] | < 0.2 nM | < 10 nM
Cc1cc(Nc2cc(Nc3ccc(C4CCCO4)cc3N(C)S(C)(=O)=O)ncn2)nc(C)n1 (stereo not drawn) [Example 114, N-[2-[[6-[(2,6-dimethylpyrimidin-4-yl)amino]pyrimidin-4-yl]amino]-5-tetrahydrofuran-2-yl-phenyl]-N-methyl-methanesulfonamide] | < 0.2 nM | < 10 nM
COCc1ccc(Nc2cc(Nc3cc(C)nc(C)n3)ncn2)c(N(C)S(C)(=O)=O)c1 [Example 115, N-[2-[[6-[(2,6-dimethylpyrimidin-4-yl)amino]pyrimidin-4-yl]amino]-5-(methoxymethyl)phenyl]-N-methyl-methanesulfonamide] | < 0.2 nM | < 10 nM
CN=S(C)(=O)c1c(C)cccc1Nc1cc(Nc2cc(C)nc(C)n2)ncn1 (stereo not drawn) [Example 116, N6-(2,6-dimethylpyrimidin-4-yl)-N4-[2-(N,S-dimethylsulfonimidoyl)-3-methyl-phenyl]pyrimidine-4,6-diamine] | 0.2 to 1 nM | 10 to 100 nM
COc1cc(C2CCOC2)ccc1Nc1cc(Nc2cc(C)nc(C)n2)ncn1 (stereo not drawn) [Example 117, N4-(2,6-dimethylpyrimidin-4-yl)-N6-(2-methoxy-4-tetrahydrofuran-3-yl-phenyl)pyrimidine-4,6-diamine] | 1 to 10 nM | > 1000 nM
Cc1cc(Nc2cc(Nc3ncccc3N(C)S(C)(=O)=O)ncn2)nc(C)n1 [Example 120, N-[2-[[6-[(2,6-dimethylpyrimidin-4-yl)amino]pyrimidin-4-yl]amino]-3-pyridyl]-N-methyl-methanesulfonamide] | < 0.2 nM | 10 to 100 nM
[2H]C([2H])([2H])N(c1cccnc1Nc1cc(Nc2cc(C)nc(C)n2)ncn1)S(C)(=O)=O [Example 121, N-[2-[[6-[(2,6-dimethylpyrimidin-4-yl)amino]pyrimidin-4-yl]amino]-3-pyridyl]-N-(trideuteriomethyl)methanesulfonamide] | < 0.2 nM | 10 to 100 nM
Cc1cc(Nc2cc(Nc3ncc(-c4nc(C(F)(F)F)n(C)n4)cc3N(C)S(C)(=O)=O)ncn2)nc(C)n1 [Example 122, N-[2-[[6-[(2,6-dimethylpyrimidin-4-yl)amino]pyrimidin-4-yl]amino]-5-[1-methyl-5-(trifluoromethyl)-1,2,4-triazol-3-yl]-3-pyridyl]-N-methyl-methanesulfonamide] | < 0.2 nM | 10 to 100 nM
Cc1cc(Nc2cc(Nc3ncc(-c4ncn(C)n4)cc3N(C)S(C)(=O)=O)ncn2)nc(C)n1 [Example 123, N-[2-[[6-[(2,6-dimethylpyrimidin-4-yl)amino]pyrimidin-4-yl]amino]-5-(1-methyl-1,2,4-triazol-3-yl)-3-pyridyl]-N-methyl-methanesulfonamide] | 1 to 10 nM | 10 to 100 nM
Cc1cc(Nc2cc(Nc3ncc(-c4ccnn4C)cc3N(C)S(C)(=O)=O)ncn2)nc(C)n1 [Example 127, N-[2-[[6-[(2,6-dimethylpyrimidin-4-yl)amino]pyrimidin-4-yl]amino]-5-(2-methylpyrazol-3-yl)-3-pyridyl]-N-methyl-methanesulfonamide] | 0.2 to 1 nM | 10 to 100 nM
Cc1cc(Nc2cc(Nc3ncc(-c4nccn4C)cc3N(C)S(C)(=O)=O)ncn2)nc(C)n1 [Example 128, N-[2-[[6-[(2,6-dimethylpyrimidin-4-yl)amino]pyrimidin-4-yl]amino]-5-(1-methylimidazol-2-yl)-3-pyridyl]-N-methyl-methanesulfonamide] | < 0.2 nM | 100 to 1000 nM
Cc1cc(Nc2cc(Nc3ncc(-c4cc(C)nn4C)cc3N(C)S(C)(=O)=O)ncn2)nc(C)n1 [Example 129, N-[5-(2,5-dimethylpyrazol-3-yl)-2-[[6-[(2,6-dimethylpyrimidin-4-yl)amino]pyrimidin-4-yl]amino]-3-pyridyl]-N-methyl-methanesulfonamide] | < 0.2 nM | 10 to 100 nM
Cc1cc(Nc2cc(Nc3ncc(-c4ncnn4C)cc3N(C)S(C)(=O)=O)ncn2)nc(C)n1 [Example 130, N-[2-[[6-[(2,6-dimethylpyrimidin-4-yl)amino]pyrimidin-4-yl]amino]-5-(2-methyl-1,2,4-triazol-3-yl)-3-pyridyl]-N-methyl-methanesulfonamide] | 0.2 to 1 nM | 100 to 1000 nM
Cc1cc(Nc2cc(Nc3ncc(-c4ccn(C)n4)cc3N(C)S(C)(=O)=O)ncn2)nc(C)n1 [Example 131, N-[2-[[6-[(2,6-dimethylpyrimidin-4-yl)amino]pyrimidin-4-yl]amino]-5-(1-methylpyrazol-3-yl)-3-pyridyl]-N-methyl-methanesulfonamide] | < 0.2 nM | 10 to 100 nM
COc1c(C)ccnc1Nc1cc(Nc2cc(C)nc(C)n2)ncn1 [Example 132, N4-(2,6-dimethylpyrimidin-4-yl)-N6-(3-methoxy-4-methyl-2-pyridyl)pyrimidine-4,6-diamine] | 0.2 to 1 nM | 100 to 1000 nM
Cc1cc(Nc2cc(Nc3ncc(-c4nnc(C)n4C)cc3N(C)S(C)(=O)=O)ncn2)nc(C)n1 [Example 134, N-[2-[[6-[(2,6-dimethylpyrimidin-4-yl)amino]pyrimidin-4-yl]amino]-5-(4,5-dimethyl-1,2,4-triazol-3-yl)-3-pyridyl]-N-methyl-methanesulfonamide] | 0.2 to 1 nM | > 1000 nM
[2H]C([2H])([2H])N(c1cc(-c2nnc(C)n2C)cnc1Nc1cc(Nc2cc(C)nc(C)n2)ncn1)S(C)(=O)=O [Example 136, N-[2-[[6-[(2,6-dimethylpyrimidin-4-yl)amino]pyrimidin-4-yl]amino]-5-(4,5-dimethyl-1,2,4-triazol-3-yl)-3-pyridyl]-N-(trideuteriomethyl)methanesulfonamide] | < 0.2 nM | < 10 nM
Cc1cc(Nc2cc(Nc3ncc(-c4ncc(C)n4C)cc3N(C)S(C)(=O)=O)ncn2)nc(C)n1 [Example 140, N-[5-(1,5-dimethylimidazol-2-yl)-2-[[6-[(2,6-dimethylpyrimidin-4-yl)amino]pyrimidin-4-yl]amino]-3-pyridyl]-N-methyl-methanesulfonamide] | < 0.2 nM | 10 to 100 nM
COc1c(Nc2cc(Nc3cc(C)nc(C)n3)ncn2)ncc(-c2cnn(C)c2C)c1C [Example 141, N6-[5-(1,5-dimethylpyrazol-4-yl)-3-methoxy-4-methyl-2-pyridyl]-N4-(2,6-dimethylpyrimidin-4-yl)pyrimidine-4,6-diamine] | < 0.2 nM | 10 to 100 nM
Cc1cc(Nc2cc(Nc3ncc(-c4cnc(C)n4C)cc3N(C)S(C)(=O)=O)ncn2)nc(C)n1 [Example 142, N-[5-(2,3-dimethylimidazol-4-yl)-2-[[6-[(2,6-dimethylpyrimidin-4-yl)amino]pyrimidin-4-yl]amino]-3-pyridyl]-N-methyl-methanesulfonamide] | < 0.2 nM | 10 to 100 nM
COc1c(-c2noc(C(F)(F)F)n2)ccnc1Nc1cc(Nc2cc(C)nc(C)n2)ncn1 [Example 143, N6-(2,6-dimethylpyrimidin-4-yl)-N4-[3-methoxy-4-[5-(trifluoromethyl)-1,2,4-oxadiazol-3-yl]-2-pyridyl]pyrimidine-4,6-diamine] | 1 to 10 nM | > 1000 nM
Cc1cc(Nc2cc(Nc3ncc(-c4cnn(C)c4C)cc3NS(C)(=O)=O)ncn2)nc(C)n1 [Example 144, N-[5-(1,5-dimethylpyrazol-4-yl)-2-[[6-[(2,6-dimethylpyrimidin-4-yl)amino]pyrimidin-4-yl]amino]-3-pyridyl]methanesulfonamide] | < 0.2 nM | 10 to 100 nM
Cc1cc(Nc2cc(Nc3ncccc3P(C)(C)=O)ncn2)nc(C)n1 [Example 145, N6-(3-dimethylphosphoryl-2-pyridyl)-N4-(2,6-dimethylpyrimidin-4-yl)pyrimidine-4,6-diamine] | < 0.2 nM | 10 to 100 nM
COc1cc(-c2cnn(C)c2C)cnc1Nc1cc(Nc2cc(C)nc(C)n2)ncn1 [Example 146, N6-[5-(1,5-dimethylpyrazol-4-yl)-3-methoxy-2-pyridyl]-N4-(2,6-dimethylpyrimidin-4-yl)pyrimidine-4,6-diamine] | < 0.2 nM | < 10 nM
